Test results from patent US10654852B2, “Antibiotics and methods of using same” (THE BROAD INSTITUTE, INC., priority 2016, dated 2020).
pIC50: −log10 of the molar value. In brackets after ≈: the same amount, converted by molar mass.

Legend:
[1] = test system: Staphylococcus aureus ATCC-29213; assay: MIC (50% NHS); format: cell-based; conditions: ATCC29213; Staphylococcus aureus ATCC-29213, 50% NHS
[2] = test system: Acinetobacter baumannii ATCC 17978; assay: MIC (50% NHS); format: cell-based; conditions: ATCC17978; Acinetobacter baumannii ATCC 17978, 50% NHS
[3] = test system: Escherichia coli NCTC-13476; assay: MIC (50% NHS); format: cell-based; conditions: NCTC13476; Escherichia coli NCTC-13476, 50% NHS
[4] = biological target: T1, hERG Potassium Ion Channel (Homo sapiens, UniProt Q12809); assay: hERG channel block, automated planar clamp (QPatch), CHO cell line; format: cell-based; conditions: hERG channel in stable CHO cell line
T1 construct: expressed in transfected cells
Protocol: The activity profiles of compounds 17, 23, and 24 were assessed by various in vitro measurements. The minimum inhibitory concentration (MIC), MIC in the presence of normal human serum (NHS), microsome CLint, the % of free compounds following a plasma protein biding (PPB) assay, and the concentration of drug where the human-ether-à-go-go-related gene (hERG gene) channel block is halved (IC50(hERG)) were measured using standard in vitro protocols for compounds 17, 23, and 24. Unless otherwise indicated, measurements (e.g., microsomal clearance) were performed using a standard microsomal stability assay using LC/MS/MS techniques.
Blockade of the cardiac ion channel coded by the hERG gene can lead to cardiac arrhythmia. […] To determine the viability of inventive compounds as pharmacological agents that would not affect the hERG channel blockade, a standard automated planar clamp method was employed to determine the IC50 for various test compounds on their inhibition of the channel. An electrophysiological assay was prepared to measure the electric current passing through the hERG channel expressed in a stable CHO cell line by applying the planar clamp method. This assay was performed using the automated QPatch platform (Sophion, Denmark) which allows fast and accurate electrophysiological characterization of the hERG ion channel and the determination of IC50 values for the test compounds.

[5] = test system: Escherichia coli ATCC-BAA-2340; assay: MIC (50% NHS); format: cell-based; conditions: ATCCBAA2340; Escherichia coli ATCC-BAA-2340, 50% NHS
[6] = test system: Escherichia coli ATCC 25922; assay: Deep thigh infection model in neutropenic mice, CFU count; format: in vivo; conditions: 24 h P.I.; for colony forming units (CFU) as compared to the control: neutropenic CD-1 mice, thigh, 12.5 mg/kg IV four doses (1, 3, 5, 7 h P.I.); for colony forming units (CFU) compared with ciprofloxacin: 12.5 mg/kg compound vs 2.5 mg/kg ciprofloxacin, four doses
Protocol: The in vivo activity to determine the CFU following administration of the test compounds was determined on a deep thigh infection caused by Escherichia coli ATCC 25922 in mice. The in vivo efficacy of various compounds was measured using a modified version of the deep-thigh infection model disclosed in Selbie, F R, et al., Br. J. Exp. Pathol. 33 (1952), 315-26 and Zuluaga, A F, et al., BMC Infect. Dis. 6 (2005) 55, each of which is hereby incorporated by reference. The efficacy was determined measuring the number of bacterial colony forming units (“CFU”) of mice injected with Escherichia coli […] on Day 0 following administration of the compounds.
Female CD-1 mice, aged 6-8-weeks, were purchased from local licensed supplier. The mice were allowed to acclimate for 3 days in the animal facility before experimentation began. The mice were then rendered neutropenic by intraperitoneal (“I.P.”) injection of 150 mg/kg cyclophosphamide on Day-4 (4 days prior to the injection of bacteria), and a maintaining dose of 100 mg/kg cyclophosphamide on Day-1 (1 day prior to the injection of bacteria). This regimen conditioned mice to neutropenia during the study. On the day of bacterial challenge (Day 0), Escherichia coli ATCC 29522 was injected into each mouse. Prior to injection, the bacterium was streaked out from −80° C. glycerol stock onto a tryptone soya agar (“TSA”) plate on Day-1. On the day of bacterial challenging (Day 0), single colonies on the agar plate were suspended in sterile saline and the final bacterial concentration was adjusted to approximately 1×10^6 CFU/ml based on turbidity readout of the bacterial solution from a Siemens MicroScan turbidity meter. The bacterial suspension was kept on ice temporarily prior to injection once the desired concentration was achieved.
On Day 0, 100 μl of bacterial suspension as prepared above was injected into the posterior quadriceps muscles of the right thigh. Antibiotic compositions comprising a tested compound in a vehicle were given to mice through tail vein injection at one hours, three hours, five hours and 7 hours post of infection (“P.I.”). The vehicle for each antibiotic composition is 5% (w/v) solutol HS15 in water. At 24 h P.I., all mice were euthanized. Infected thigh muscles for each tested mouse were excised and stored in ice-cold sterile saline for transfer to a Biosafety Level 2 (“BSL-2”) laboratory for subsequent CFU counting. Within one hour following sample collection, the muscles from mice tested with the same antibiotic composition were homogenized by a homogenizer (IKA T10 basic S25), serially diluted in sterile saline, and plated on TSA plates. The plates were incubated at 30° C. for approximately 18 h. The CFU were counted and calculated as CFU/mouse. The animal facility was AAALAC accredited, and the animal welfare in this experiment was in compliance of IACUC.
The number of colony forming units was independently measured in five different mice per composition administered. Each mouse was administered a mass of active compound per kg weight of the mouse four times a day. Mice were administered a composition without a test compound, compositions comprising 2.5 mg(ciprofloxacin)/kg, 12.5 mg(Compound 17)/kg, 12.5 mg(Compound 23)/kg, and 12.5 mg(Compound 24)/kg).

[7] = test system: Escherichia coli CCUG-59353; assay: MIC (50% NHS); format: cell-based; conditions: CCUG59353; Escherichia coli CCUG-59353, 50% NHS
[8] = test system: Proteus mirabilis ATCC-29906; assay: MIC (50% NHS); format: cell-based; conditions: ATCC29906; Proteus mirabilis ATCC-29906, 50% NHS
[9] = test system: Serratia marcescens Bizio ATCC-29021; assay: MIC (50% NHS); format: cell-based; conditions: ATCC29021; Serratia marcescens Bizio ATCC-29021, 50% NHS
[10] = test system: Staphylococcus aureus WX1-009; assay: MIC (50% NHS); format: cell-based; conditions: WX1009; Staphylococcus aureus WX1-009, 50% NHS

T1 sequence (Q12809 whole entry): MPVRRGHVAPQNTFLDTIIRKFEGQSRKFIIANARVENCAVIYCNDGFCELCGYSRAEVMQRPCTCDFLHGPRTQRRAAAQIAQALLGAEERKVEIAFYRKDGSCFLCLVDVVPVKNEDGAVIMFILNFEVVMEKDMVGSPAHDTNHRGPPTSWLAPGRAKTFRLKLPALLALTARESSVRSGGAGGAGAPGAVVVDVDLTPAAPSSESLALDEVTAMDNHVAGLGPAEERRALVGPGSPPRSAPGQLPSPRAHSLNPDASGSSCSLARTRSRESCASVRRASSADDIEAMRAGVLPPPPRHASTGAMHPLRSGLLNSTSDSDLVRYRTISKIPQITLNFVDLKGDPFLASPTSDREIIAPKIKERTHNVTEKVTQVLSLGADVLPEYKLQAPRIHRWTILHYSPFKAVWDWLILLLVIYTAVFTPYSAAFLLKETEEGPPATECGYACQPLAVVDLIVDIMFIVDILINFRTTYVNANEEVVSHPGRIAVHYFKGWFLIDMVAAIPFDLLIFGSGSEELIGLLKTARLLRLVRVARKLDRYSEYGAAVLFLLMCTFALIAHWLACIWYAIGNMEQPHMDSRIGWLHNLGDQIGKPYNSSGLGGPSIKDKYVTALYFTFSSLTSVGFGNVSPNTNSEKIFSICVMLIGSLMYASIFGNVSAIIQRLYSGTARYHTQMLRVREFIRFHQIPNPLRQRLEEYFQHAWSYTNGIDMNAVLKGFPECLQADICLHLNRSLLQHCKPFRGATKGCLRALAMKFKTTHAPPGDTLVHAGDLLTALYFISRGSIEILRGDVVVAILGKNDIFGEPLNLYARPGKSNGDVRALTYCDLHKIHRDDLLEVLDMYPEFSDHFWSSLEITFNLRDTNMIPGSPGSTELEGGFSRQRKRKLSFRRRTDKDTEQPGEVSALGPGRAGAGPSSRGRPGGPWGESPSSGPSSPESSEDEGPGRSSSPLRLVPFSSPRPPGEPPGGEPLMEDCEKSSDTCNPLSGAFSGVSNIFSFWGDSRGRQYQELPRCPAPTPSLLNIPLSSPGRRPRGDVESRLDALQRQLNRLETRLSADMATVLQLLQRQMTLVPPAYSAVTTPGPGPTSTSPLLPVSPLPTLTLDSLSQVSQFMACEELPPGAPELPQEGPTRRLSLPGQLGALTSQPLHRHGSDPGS

What does the source list for `CN1CC2CN(C(=O)Nc3cc(F)cc(F)c3)CC(C1)C2(O)c1ccc(-c2ccc(CN)cc2C#N)cn1` [Compound 24, (1R,5S,9r)-9-(5-(4-(aminomethyl)-2-cyanophenyl)pyridin-2-yl)-N-(3,5-difluorophenyl)-9-hydroxy-7-methyl-3,7-diazabicyclo[3.3.1]nonane-3-carboxamide]?
MIC [1]: 0.25 µg/mL (≈ 0.482 µM); MIC [2]: 64 µg/mL (≈ 123 µM); MIC [3]: 4 µg/mL (≈ 7.71 µM); pIC50 [4]: < 4.52; MIC [5]: 0.25 µg/mL (≈ 0.482 µM); colony forming units (CFU) as compared to the control [6]: decrease the amount of colony forming units; MIC [7]: 4 µg/mL (≈ 7.71 µM); MIC [8]: 32 µg/mL (≈ 61.7 µM); MIC [9]: 16 µg/mL (≈ 30.9 µM); MIC [10]: 0.25 µg/mL (≈ 0.482 µM)

Which results are given for `CNCc1ccc(-c2ccc(C3(O)C4CN(C)CC3CN(C(=O)Nc3cc(F)cc(F)c3)C4)nc2)c(C#N)c1` [Compound 17, (1R,5S,9r)-9-(5-(2-cyano-4-((methylamino)methyl)phenyl)pyridin-2-yl)-N-(3,5-difluorophenyl)-9-hydroxy-7-methyl-3,7-diazabicyclo[3.3.1]nonane-3-carboxamide]?
MIC [1]: ≤ 0.11 µg/mL; MIC [2]: 28.5 µg/mL (≈ 53.5 µM); MIC [3]: 1.78 µg/mL (≈ 3.34 µM); pIC50 [4]: < 4.52; MIC [5]: 0.22 µg/mL (≈ 0.413 µM); colony forming units (CFU) compared with ciprofloxacin [6]: Comparable results to ciprofloxacin; colony forming units (CFU) as compared to the control [6]: decrease the amount of colony forming units; MIC [7]: 1.78 µg/mL (≈ 3.34 µM); MIC [8]: 7.12 µg/mL (≈ 13.4 µM); MIC [9]: 3.56 µg/mL (≈ 6.68 µM); MIC [10]: ≤ 0.11 µg/mL

`CN1CC2CN(C(=O)Nc3cc(F)cc(F)c3)CC(C1)C2(O)c1ccc(-c2ccc(CN)cc2C#N)cc1` [Compound 23, (1R,5S,9r)-9-(4′-(aminomethyl)-2′-cyano-[1,1′-biphenyl]-4-yl)-N-(3,5-difluorophenyl)-9-hydroxy-7-methyl-3,7-diazabicyclo[3.3.1]nonane-3-carboxamide] was tested. Which MIC [1] did it give?
Its MIC is 0.13 µg/mL (≈ 0.251 µM).

What about the MIC [2] of the same compound?
The MIC was 64 µg/mL (≈ 124 µM).

And the MIC [3]?
Its MIC is 2 µg/mL (≈ 3.86 µM).

And the pIC50 [4]?
Its pIC50 is under 4.52.

What about the MIC [5] of the same compound?
Its MIC is 0.25 µg/mL (≈ 0.483 µM).

And the “colony forming units (CFU) compared with ciprofloxacin” value [6]?
Its value is “Comparable results to ciprofloxacin”.

What about the “colony forming units (CFU) as compared to the control” value [6] of the same compound?
The value was “decrease the amount of colony forming units”.

What about the MIC [7] of the same compound?
The MIC was 2 µg/mL (≈ 3.86 µM).

And the MIC [8]?
The MIC was 4 µg/mL (≈ 7.73 µM).

And the MIC [9]?
Its MIC is 4 µg/mL (≈ 7.73 µM).

And the MIC [10]?
The MIC was at most 0.06 µg/mL.
